From article PMC11930985 (Nature Communications, 2025)
Values after ≈ are worked out from the molar mass of the structure shown. Values joined by “and” are separate entries in the source; they are usually repeats but may differ in a detail not shown here. Identical values can stand only once. Like-named read-outs stand apart in the source and are kept apart here.

What was measured:
Flt4 [1] = tested on: Flt4; set-up: method as in Investigator's Brochure (IB) version 5.0; conditions: ref Investigator's Brochure (IB) version 5.0; cited from earlier work
bacterial mutation = conditions: ref Investigator's Brochure (IB) version 5.0; cited from earlier work
pS6 S235/S236 = assay: CyTOF maximal inhibition in Undefined/Immature Myeloid cells: pS6; format: in vivo; conditions: Homo sapiens, N = 12 patients, read-out: EC50 (± standard error), pS6 S235/S236 inhibition
Source text: Pharmacodynamic endpoints included the measurement of inhibition of pAXL, pERK, pAKT, pS6 and pSTAT1/3/5 in blast cells (defined as cells with abnormal surface marker expression as compared to healthy donor peripheral blood mononuclear cells and undefined/immature myeloid cells (defined as cells carrying myeloid markers but lacking distinguishing terminal differentiation markers). Mass cytometry time of flight (CyTOF) was used for the determination of the pharmacodynamic markers using a previously validated and tested panel of mass-tagged antibodies[39],[40]. The antibodies in the panel are listed in Supplementary Table 5. Briefly, fixed leukocytes from peripheral blood were barcoded using a 20-plex metal barcoding kit (Standard Biotools, Cell-ID 201060) according to manufacturer’s protocol, allowing all the samples from a single individual to be stained and analysed in parallel. All analysis runs included barcoded peripheral blood mononuclear cells (PBMCs) from at least one healthy donor and an identical barcoded reference sample (mix of PBMCs from six healthy donors). […]
For each population, marker, and sample, the 95th percentile of the non-transformed expression values was calculated. […]

Flt4 [2] = tested on: Flt4; set-up: method as in Investigator's Brochure (IB) version 5.0; conditions: ref Investigator's Brochure (IB) version 5.0; cited from earlier work; remark: listed apart in the source
[3] = Bemcentinib plasma PK (LC-MS/MS, population PK model); format: in vivo, human; conditions: for Cmax / AUC / half-life: human, plasma, oral; for Cmax: read-out: mean Cmax at steady state
Protocol: Thereafter, a pre-dose sample was collected at all study visits ( > Cycle 3 up to and including Cycle 15) and at End of Study. PK samples were measured using a fully validated liquid chromatography with tandem mass spectrometry method for bemcentinib. […] The PopPK model was developed by evaluating various structural models including 1 compartment and 2 compartment models. Covariate analysis was performed using a forward addition and backward elimination procedure, from which a preliminary base model was selected. During covariate analysis, continuous covariates were centered on the median population values, and the most common or most relevant category was used as the reference value for categorical covariates. A visual predictive check (VPC) was conducted to verify that the final model adequately predicted both the central tendency and variability of the observed data across studies or by proton pump inhibitor use. Quantification of parameter uncertainty in the final model was assessed by nonparametric bootstrap analysis. Population PK analysis was performed using the nonlinear mixed effects modelling methodology as implemented in the NONMEM program Version 7.4.4[35]. Data postprocessing was performed using R (Version 3.6.1)[36]. Individual population PK model parameters were estimated using NONMEM with the following $ESTIMATION parameters: METHOD = COND INTERACTION […] = 0 […] = 3. These parameters were subsequently used to predict individual steady-state profiles with a dense PK sampling scheme using the SIMULATION method in NONMEM.

monkeys = tested on: monkeys; set-up: method as in Investigator's Brochure (IB) version 5.0; conditions: ref Investigator's Brochure (IB) version 5.0, cited from earlier work
Flt1 = tested on: Flt1; set-up: method as in Investigator's Brochure (IB) version 5.0; conditions: ref Investigator's Brochure (IB) version 5.0; cited from earlier work
healthy male subjects = tested on: healthy male subjects; set-up: method as in Protocol BGBC001; conditions: ref Protocol BGBC001; cited from earlier work

In the case of `Nc1nc(Nc2ccc3c(c2)CC[C@@H](N2CCCC2)CC3)nn1-c1cc2c(nn1)-c1ccccc1CCC2` [Bemcentinib], the IC50 (Flt4 [1]) is listed as 41 nM, the “Ames bacterial mutation assay result” value (bacterial mutation) is listed as “negative” and the EC50 (pS6 S235/S236) is listed as 0.1187 ± 0.0011 µg/mL (≈ 0.234 µM). For the same molecule, the IC50 (Flt4 [2]) was > 1000 nM, the “mean Ctrough at steady state” value ([3]; DE cohort, maintenance 100 mg daily) was 136 ± 109 ng/mL and the “mean Ctrough at steady state” value ([3]; DE cohort, maintenance 300 mg daily) was 382 ± 193 ng/mL. For the same molecule, the “bemcentinib concentration” value ([3]; Figure 4, individual patients, concentration paired with maximum pAXL(Y779) inhibition) was 358 ng/mL and 79 ng/mL and 276 ng/mL and 103 ng/mL and 178 ng/mL and 74 ng/mL and 173 ng/mL and 0 ng/mL and 122 ng/mL and 105 ng/mL and 73.3 ng/mL and 6.36 ng/mL, the “mean Ctrough at steady state” value ([3]; LDAC cohort, maintenance 200 mg daily) was 196 ± 124 ng/mL and the “bemcentinib concentration” value ([3]; Supplementary Figure 1b, individual patients, concentration paired with maximum pSTAT5 (Y694) inhibition) was 358 ng/mL and 145 ng/mL and 276 ng/mL and 103 ng/mL and 124 ng/mL and 74 ng/mL and 118 ng/mL and 0 ng/mL and 81.5 ng/mL and 112 ng/mL and 270 ng/mL. The “bemcentinib concentration” value ([3]; Supplementary Figure 1c, individual patients, concentration paired with maximum pERK1/2 (T202/Y204) inhibition) was 358 ng/mL and 78.9 ng/mL and 276 ng/mL and 134 ng/mL and 130 ng/mL and 74.6 ng/mL and 118 ng/mL and 0 ng/mL and 98 ng/mL and 94 ng/mL and 73.4 ng/mL and 270 ng/mL, the “bemcentinib concentration” value ([3]; Supplementary Figure 1d, individual patients, concentration paired with maximum pAKT (S473) inhibition) was 408 ng/mL and 78.9 ng/mL and 276 ng/mL and 103 ng/mL and 130 ng/mL and 74 ng/mL and 225 ng/mL and 0 ng/mL and 81.5 ng/mL and 183 ng/mL and 73.4 ng/mL and 270 ng/mL and the Cmax ([3]; 100 mg, DE cohort, maintenance 100 mg daily, 10 patients) was 140 ± 110 ng/mL. It also gave an AUC ([3]; 100 mg, DE cohort, maintenance 100 mg daily, read-out: AUC) of 3310 ± 2630 ng·h/mL, a half-life ([3]; 200 mg daily, LDAC cohort, read-out: median t1/2 (converted)) of 124 h and a Cmax ([3]; 200 mg, DE cohort, maintenance 200 mg daily, 21 patients) of 162 ± 121 ng/mL. For the same molecule, the AUC ([3]; 200 mg, DE cohort, maintenance 200 mg daily, read-out: AUC) was 3810 ± 2860 ng·h/mL, the Cmax ([3]; 200 mg, LDAC cohort, maintenance 200 mg daily, 35 patients) was 210 ± 128 ng/mL and the AUC ([3]; 200 mg, LDAC cohort, maintenance 200 mg daily, read-out: mean AUC) was 4890 ± 3020 ng·h/mL. It also gave a Cmax ([3]; 300 mg, DE cohort, maintenance 300 mg daily, 5 patients) of 398 ± 200 ng/mL, an AUC ([3]; 300 mg, DE cohort, maintenance 300 mg daily, read-out: AUC) of 9390 ± 4720 ng·h/mL and a half-life ([3]; DE cohort, maintenance 100 mg daily, read-out: median half-life (t1/2) (converted)) of 159 h. For the same molecule, the half-life ([3]; DE cohort, maintenance 200 mg daily, read-out: median half-life (t1/2) (converted)) was 124 h, the half-life ([3]; DE cohort, maintenance 300 mg daily, read-out: median half-life (t1/2) (converted)) was 156 h and the “QTc change compared to vehicle control and pre-dose values” (monkeys; 7.5 mg/kg and 15 mg/kg single oral) was “below 10%”. The Heart rate (monkeys; 7.5 mg/kg – 60 mg/kg single oral) was “recoverable, non-adverse decreases”, the “Magnitude of the QTc effect” value (monkeys; highest dose level (60 mg/kg single oral)) was 17% and the IC50 (Flt1) was > 1000 nM. For the same molecule, the “Maximum QTcF recorded (severity)” value (healthy male subjects) was “Grade I”.
